Measurements as given in ChEMBL document CHEMBL1124665, “Is there a case for P-450 inhibitors in cancer treatment?” (J Med Chem, 1989).

Legend:
Aromatase [1] = target: T1, Aromatase (Homo sapiens, UniProt P11511); assay: In vitro inactivation of human placental Cytochrome P450 19A1
T1 sequence (P11511 whole entry): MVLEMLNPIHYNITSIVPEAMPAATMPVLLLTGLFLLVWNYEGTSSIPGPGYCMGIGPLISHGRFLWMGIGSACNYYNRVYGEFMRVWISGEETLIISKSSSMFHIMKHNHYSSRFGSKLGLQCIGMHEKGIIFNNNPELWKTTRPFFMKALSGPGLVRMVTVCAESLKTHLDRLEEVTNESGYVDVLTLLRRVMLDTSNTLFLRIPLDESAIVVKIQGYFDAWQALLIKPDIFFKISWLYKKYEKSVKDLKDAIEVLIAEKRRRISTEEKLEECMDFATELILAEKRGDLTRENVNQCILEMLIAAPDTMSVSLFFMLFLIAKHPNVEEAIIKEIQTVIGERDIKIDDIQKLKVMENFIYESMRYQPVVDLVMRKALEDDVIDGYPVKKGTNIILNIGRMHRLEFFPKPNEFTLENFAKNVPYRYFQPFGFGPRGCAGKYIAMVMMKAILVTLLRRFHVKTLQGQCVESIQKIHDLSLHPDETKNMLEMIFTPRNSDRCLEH

Aromatase [2] = target: T1, Aromatase; assay: In vitro inhibition of Cytochrome P450 19A1
Aromatase [3] = target: T1, Aromatase; assay: Effective dose for inhibition of extragonadal estrogen production in baboons; format: functional; conditions: papio hamadryas; target entry is the homologue from another species

SMILES	kinact (Aromatase [1]) [s⁻¹]	Ki (Aromatase [2]) [µM]	ED50 (Aromatase [3]) [mg/kg]
CC12CCC3C(CCC4=C(O)C(=O)CCC43C)C1CCCC2=O (configuration not stated)	0.00041	0.0102	
C#CC[C@]12CCC(=O)C=C1CC[C@@H]1[C@@H]2CC[C@]2(C)C(=O)CC[C@@H]12 [PLOMESTANE]	0.0011	0.004	4
C[C@]12C=CC(=O)C=C1CC[C@@H]1[C@@H]2CC[C@]2(C)OC(=O)CC[C@@H]12 [TESTOLACTONE]	0.00036	35	
